Key:
[1] = test system: Complement Factor H (CFH); assay: Multi-analyte profiling of plasma, ASSURE trial; format: in vivo, human; settings: week 26 vs. baseline, N 20
Procedure: (§1) In this example, plasma samples from human subjects treated with placebo or RVX000222 was analyzed by Multi-Analyte Profiling (MAP) technology. The method can be used to determine the effect of compounds, including those in the present invention, on the levels of various analytes in plasma (Table 8).

Complement C3 (C3) = assay: Multi-analyte profiling of plasma, ASSURE trial; format: in vivo, human; settings: week 26 vs. baseline, N 20
Procedure: as §1

[2] = test system: Complement Factor H - Related Protein 1 (CFHR1); assay: Multi-analyte profiling of plasma, ASSURE trial; format: in vivo, human; settings: week 26 vs. baseline, N 17
Procedure: as §1

Complement C4-B = assay: Plasma protein quantitation by LC-MRM/MS, ASSURE trial; format: in vivo, human; settings: week 26 vs. baseline
Procedure: (§2) The method can be used to determine the effect of compounds, including those in the present invention, on the levels of various analytes found in plasma.
(§3) Using mass spectrometric methods, including multiple reaction monitoring (MRM) mass spectrometry (MRM-MS), each sample is analyzed for the presence and amount of 43 different plasma proteins. The changes in values for each protein analyte are calculated versus the baseline measure, and statistically significant (p<0.05) and trending (0.10>p>0.05) values are reported (Table 9). Downregulation of expression of components of the complement cascade will result in reduced activity of the pathway and thus will constitute a positive result.

[3] = test system: Complement C1r subcomponent; assay: as above; format: in vivo, human; settings: week 26 vs. baseline
Procedure: as §2, §3

Complement factor H = assay: as above; format: in vivo, human; settings: week 26 vs. baseline
Procedure: as §2, §3

Complement component C9 = assay: as above; format: in vivo, human; settings: week 26 vs. baseline
Procedure: as §2, §3

Complement C3 = assay: as above; format: in vivo, human; settings: week 26 vs. baseline
Procedure: as §2, §3

Complement factor I [4] = assay: as above; format: in vivo, human; settings: week 26 vs. baseline
Procedure: as §2, §3

[5] = test system: Complement component C8 beta chain; assay: as above; format: in vivo, human; settings: week 26 vs. baseline
Procedure: as §2, §3

Complement C5 = assay: as above; format: in vivo, human; settings: week 26 vs. baseline
Procedure: as §2, §3

Complement factor B = assay: as above; format: in vivo, human; settings: week 26 vs. baseline, trending p 0.06
Procedure: as §2, §3

[6] = test system: Complement component C8 alpha chain; assay: as above; format: in vivo, human; settings: week 26 vs. baseline
Procedure: as §2, §3

CD59 mRNA = assay: Microarray analysis of ex-vivo treated human whole blood; format: cell-based; settings: 20 uM, 24 h
Procedure: (§4) In this example, RNA from human whole blood treated ex vivo was analyzed by microarray. The method can be used to determine the effect of compounds, including those in the present invention, on RNA levels (Table 6).
(§5) After obtaining informed consent, whole blood was collected from three healthy volunteers into BD Vacutainer Sodium Heparin tubes and samples were inverted 10 times. Blood samples (1 mL) were combined with 1 mL of RPMI containing 2 mM glutamine, 100 U/mL penicillin, 100 ug/mL streptomycin, 20% FBS and the compound of interest or vehicle (0.1% DMSO), followed by a 24 h incubation at 37° C. Treated samples were transferred to a PAXgene RNA tube (PreAnalytix/Qiagen), inverted 5 times and frozen. RNA was isolated with the PAXgene RNA kit according to manufacturer's instructions. Microarray analysis was performed by Asuragen (Austin, Tex.) using the Affymetrix Human […]. Shown in Table 6 is the mean of 3 independent samples (p<0.01). Downregulation of expression of components of the complement cascade will result in reduced activity of the pathway and thus will constitute a positive result. Upregulation of negative regulators or downregulation of positive regulators of the pathway will also result in reduced activity of the pathway and thus will constitute a positive result.

[7] = test system: Complement component 3 (C3) mRNA; assay: as above; format: cell-based; settings: 20 uM, 24 h
Procedure: as §4, §5

CD55 mRNA = assay: as above; format: cell-based; settings: 20 uM, 24 h
Procedure: as §4, §5

[8] = test system: alternative complement pathway activity; assay: Complement alternative pathway (AH50) assay on clinical serum samples; format: in vivo, human; settings: ASSURE trial, 26 weeks vs baseline
Procedure: (§6) The method can be used to determine the effect of compounds, including those in the present invention, on the activity of the classical and alternative complement system in clinical samples. […] Using the CH50 screening assay to detect the hemolysis of sheep erythrocytes sensitized by specific antibodies, the hemolytic activity of the complement system in serum samples from treated and untreated subjects was measured. Likewise, using specific conditions to activate only the alternative pathway (AH50), activity of the complement response was measured. The degree of complement activation was measured at baseline and terminally to determine if there were any changes in the function of the complement system following drug treatment (FIG. 7). Reduced function of the complement system constitutes a positive result.

[9] = test system: classical complement system hemolytic activity (sensitized sheep erythrocytes); assay: Total hemolytic complement (CH50) assay on clinical serum samples; format: in vivo, human; settings: ASSURE trial, 26 weeks vs baseline
Procedure: as §6

Complement factor I [10] = assay: SOMAscan protein quantitation in clinical samples, ASSURE trial; format: in vivo, human; settings: 200 mg/day, week 26 vs. baseline
Procedure: (§7) In this example, plasma samples from human subjects treated with placebo or RVX000222 are analyzed by the SOMAscan™ assay (SomaLogic). The method can be used to determine the effect of compounds, including those in the present invention, on the abundance of proteins, including complement components, in clinical samples. […] Using the SOMAscan™ technology, each sample is analyzed for the relative presence and amount of 1,310 different proteins. The changes in values for each protein analyte are calculated versus the baseline measure, and statistically significant (p<0.05) values are reported (Table 10). Downregulation of expression of components of the complement cascade will result in reduced activity of the pathway and thus will constitute a positive result.

[11] = test system: Complement decay-accelerating factor; assay: as above; format: in vivo, human; settings: 200 mg/day, week 26 vs. baseline
Procedure: as §7

[12] = test system: Complement C1s subcomponent; assay: as above; format: in vivo, human; settings: 200 mg/day, week 26 vs. baseline
Procedure: as §7

[13] = test system: Mannan-binding lectin serine protease 1; assay: as above; format: in vivo, human; settings: 200 mg/day, week 26 vs. baseline
Procedure: as §7

With `COc1cc(OC)c2c(=O)[nH]c(-c3cc(C)c(OCCO)c(C)c3)nc2c1` [RVX000222, 2-(4-(2-hydroxyethoxy)-3,5-dimethylphenyl)-5,7-dimethoxyquinazolin-4(3H)-one] the “Complement Factor H (CFH) Change from baseline” value [1] was -75.35 µg/mL, the “Complement Factor H (CFH) Percent Change from baseline” value [1] was −11.45% and the “Complement C3 (C3) Change from baseline” value (Complement C3 (C3)) was -0.1 mg/mL. For the same compound, the “Complement C3 (C3) Percent Change from baseline” value (Complement C3 (C3)) was −9.28%, the “Complement Factor H - Related Protein 1 (CFHR1) Change from baseline” value [2] was -291.76 µg/mL and the “Complement Factor H - Related Protein 1 (CFHR1) Percent Change from baseline” value [2] was −10.75%. The “Complement C4-B Change from baseline” value (Complement C4-B) was −7,492 ng/mL, the “Complement C4-B Percent Change from baseline” value (Complement C4-B) was −4.3% and the “Complement C1r subcomponent Change from baseline” value [3] was -571 ng/mL. For the same compound, the “Complement C1r subcomponent Percent Change from baseline” value [3] was −3.6%, the “Complement factor H Change from baseline” value (Complement factor H) was −8,710 ng/mL and the “Complement factor H Percent Change from baseline” value (Complement factor H) was −4.2%. For the same compound, the “Complement component C9 Change from baseline” value (Complement component C9) was −5,034 ng/mL, the “Complement component C9 Percent Change from baseline” value (Complement component C9) was −13.8% and the “Complement C3 Change from baseline” value (Complement C3) was −34,105 ng/mL. For the same compound, the “Complement C3 Percent Change from baseline” value (Complement C3) was −3.6%, the “Complement factor I Change from baseline” value (Complement factor I [4]) was −1,205 ng/mL and the “Complement factor I Percent Change from baseline” value (Complement factor I [4]) was −5.2%. For the same compound, the “Complement component C8 beta chain Change from baseline” value [5] was -341 ng/mL, the “Complement component C8 beta chain Percent Change from baseline” value [5] was −3.9% and the “Complement C5 Change from baseline” value (Complement C5) was −2,228 ng/mL. The “Complement C5 Percent Change from baseline” value (Complement C5) was −5.3%, the “Complement factor B Change from baseline” value (Complement factor B) was −4,259 ng/mL and the “Complement factor B Percent Change from baseline” value (Complement factor B) was −4.2%. The “Complement component C8 alpha chain Change from baseline” value [6] was -120 ng/mL, the “Complement component C8 alpha chain Percent Change from baseline” value [6] was −8.6% and the “CD59 % change in expression” value (CD59 mRNA) was 88%. The “Complement component 3 (C3) % change in expression” value [7] was −59%, the “CD55 % change in expression” value (CD55 mRNA) was 58% and the “complement activity in clinical samples, AHSO assay (FIG. 7A)” value [8] was “reduces complement activity”. The “complement activity in clinical samples, CHSO assay (FIG. 7B)” value [9] was “reduces complement activity”, the “Complement factor I (CFI) % change vs. baseline” value (Complement factor I [10]) was −6.4% and the “Complement decay-accelerating factor (CD55) % change vs. baseline” value [11] was −4.0%. For the same compound, the “Complement C1s subcomponent (C1S) % change vs. baseline” value [12] was −6.1% and the “Mannan-binding lectin serine protease 1 (MASP1) % change vs. baseline” value [13] was 4.8%.
